Data as given in ChEMBL document CHEMBL4038320 (J Med Chem, 2017).

Key:
[1] = molecular target: Rho-associated protein kinase 2 (Homo sapiens, UniProt O75116); assay: Inhibition of recombinant human N-terminal GST-tagged ROCK2 catalytic domain (1 to 553 residues) expressed in baculovirus expression system using STK 2-biotin as substrate measured after 60 mins by HTRF/TR-FRET assay
CYP3A4 = CYP3A4 (Homo sapiens, UniProt P08684); assay: Inhibition of CYP3A4 (unknown origin) at 10 uM; format: ADME
Sequence of CYP3A4 (P08684 whole entry): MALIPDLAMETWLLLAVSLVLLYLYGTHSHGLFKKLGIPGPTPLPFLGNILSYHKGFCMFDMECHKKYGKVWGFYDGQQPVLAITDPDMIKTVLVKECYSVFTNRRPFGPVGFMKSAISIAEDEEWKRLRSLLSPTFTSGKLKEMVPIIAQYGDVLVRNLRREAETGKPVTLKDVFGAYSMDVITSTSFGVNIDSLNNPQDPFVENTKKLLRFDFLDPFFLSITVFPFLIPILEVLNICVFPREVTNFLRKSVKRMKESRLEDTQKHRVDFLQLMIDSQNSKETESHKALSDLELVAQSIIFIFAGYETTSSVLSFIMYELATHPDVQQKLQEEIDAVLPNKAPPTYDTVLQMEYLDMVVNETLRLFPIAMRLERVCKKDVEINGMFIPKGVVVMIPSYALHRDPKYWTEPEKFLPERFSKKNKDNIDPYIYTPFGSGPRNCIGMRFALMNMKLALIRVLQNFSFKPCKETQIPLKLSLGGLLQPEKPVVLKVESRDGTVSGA

[2] = molecular target: Protein kinase C alpha type (Homo sapiens, UniProt P17252); assay: Inhibition of human PKCalpha active using MBP as substrate after 60 mins in presence of [gamma-32]ATP by scintillation counting

Sequence of Rho-associated protein kinase 2 (O75116 whole entry, the tested form may be a part): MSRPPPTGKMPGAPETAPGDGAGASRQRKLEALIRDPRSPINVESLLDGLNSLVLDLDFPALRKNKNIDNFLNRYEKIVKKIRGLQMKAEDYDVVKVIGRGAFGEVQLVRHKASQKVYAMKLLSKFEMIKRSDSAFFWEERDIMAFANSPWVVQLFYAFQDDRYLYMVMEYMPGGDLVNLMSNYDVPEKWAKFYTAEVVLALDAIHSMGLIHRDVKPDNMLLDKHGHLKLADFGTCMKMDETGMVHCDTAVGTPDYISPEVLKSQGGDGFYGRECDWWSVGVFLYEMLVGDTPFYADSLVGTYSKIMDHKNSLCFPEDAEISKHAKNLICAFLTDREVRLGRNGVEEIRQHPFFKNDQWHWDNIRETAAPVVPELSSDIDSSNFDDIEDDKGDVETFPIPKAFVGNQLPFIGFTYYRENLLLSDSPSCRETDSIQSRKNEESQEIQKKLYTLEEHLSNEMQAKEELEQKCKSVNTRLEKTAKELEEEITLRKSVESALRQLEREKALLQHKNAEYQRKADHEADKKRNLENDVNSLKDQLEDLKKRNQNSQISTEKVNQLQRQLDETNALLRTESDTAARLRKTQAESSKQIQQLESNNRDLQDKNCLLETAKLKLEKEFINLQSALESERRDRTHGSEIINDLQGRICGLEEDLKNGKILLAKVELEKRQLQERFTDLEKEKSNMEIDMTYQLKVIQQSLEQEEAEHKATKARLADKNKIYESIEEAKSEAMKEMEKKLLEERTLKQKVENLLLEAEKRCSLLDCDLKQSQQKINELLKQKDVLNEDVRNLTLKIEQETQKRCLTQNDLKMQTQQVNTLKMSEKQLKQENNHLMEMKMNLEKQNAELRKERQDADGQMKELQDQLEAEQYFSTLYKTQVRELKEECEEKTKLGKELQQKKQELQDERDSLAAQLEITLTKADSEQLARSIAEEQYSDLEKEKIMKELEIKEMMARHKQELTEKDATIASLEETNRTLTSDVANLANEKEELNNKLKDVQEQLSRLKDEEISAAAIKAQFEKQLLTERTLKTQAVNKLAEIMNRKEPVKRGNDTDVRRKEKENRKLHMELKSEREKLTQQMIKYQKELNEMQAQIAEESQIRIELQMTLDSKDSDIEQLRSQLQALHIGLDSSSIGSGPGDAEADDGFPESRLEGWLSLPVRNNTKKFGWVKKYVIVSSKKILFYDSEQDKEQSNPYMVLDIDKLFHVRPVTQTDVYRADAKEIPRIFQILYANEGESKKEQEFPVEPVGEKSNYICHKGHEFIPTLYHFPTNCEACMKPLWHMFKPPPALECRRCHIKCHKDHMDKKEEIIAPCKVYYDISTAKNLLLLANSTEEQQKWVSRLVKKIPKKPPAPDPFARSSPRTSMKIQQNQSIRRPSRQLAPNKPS

| IC50 [1] [nM] | inhibition at 10 µM (CYP3A4) [%] | IC50 [2] [µM] | Structure (SMILES) |
| --- | --- | --- | --- |
| 1700 | 86 |  | Clc1cccc(OCc2n[nH]c(-c3ccncc3)n2)c1 |
| 640 |  |  | O=C(CNc1ccccc1)N/N=C/c1ccncc1 |
| 300 |  |  | O=C(CNc1cccc(Cl)c1)N/N=C/c1ccncc1 |
| 62 |  |  | COc1cccc(NCC(=O)N/N=C/c2ccncc2)c1 |
| 7400 |  |  | COc1ccccc1NCC(=O)N/N=C/c1ccncc1 |
| 540 |  |  | O=C(CNc1ccc(Cl)cc1)N/N=C/c1ccncc1 |
| > 10000 | 69 |  | Cn1c(CNc2cccc(C(=O)NCc3c(F)cccc3F)c2)nnc1-c1ccnc(NCCc2ccccc2)c1 |
| 1700 | 100 | > 10 | Clc1ccccc1NCc1nc(-c2ccncc2)n[nH]1 |
| 20 | 95 | 3.2 | COc1cccc(CNC(=O)c2cccc(NCc3nnc(-c4ccncc4)[nH]3)c2)c1 |
| 1600 | 54 | 8.7 | Cn1c(CNc2cccc(C(=O)NCc3ccccc3Cl)c2)nnc1-c1ccncc1 |
| 94 | 97 | > 10 | Clc1ccc(NCc2nc(-c3ccncc3)n[nH]2)cc1 |
| 94 | 88 | > 10 | Cc1cnccc1-c1n[nH]c(CNc2cccc(C(=O)NCc3ccccc3)c2)n1 |
| 720 | 92 | > 10 | COc1cccc(NCc2nc(-c3ccncc3)n[nH]2)c1 |
| 5700 |  | > 10 | CCOc1cccc(NCC(=O)N/N=C2\CCCc3cnccc32)c1 |
| 900 | 93 |  | Clc1ccc(NCCc2nc(-c3ccncc3)n[nH]2)cc1 |
| 2200 | 79 | > 10 | CN(Cc1ccccc1)C(=O)c1cccc(NCc2nc(-c3ccncc3)n[nH]2)c1 |
| 1200 | 100 | > 10 | c1ccc(CSc2cccc(NCc3nc(-c4ccncc4)n[nH]3)c2)cc1 |
| 2700 | 96 | > 10 | c1ccc(CCOc2cccc(NCc3nc(-c4ccncc4)n[nH]3)c2)cc1 |
| 7400 | 29 |  | CNc1cc(-c2nnc(CNc3cccc(C(=O)NCc4c(F)cccc4F)c3)n2C)ccn1 |
| 7.3 | 100 | 3.6 | O=C(NCc1ccccc1)c1cccc(NCc2nc(-c3ccncc3)c[nH]2)c1 |
| > 10000 | 56 |  | CC(=O)Nc1cc(-c2nnc(CNc3cccc(C(=O)NCc4ccccc4C(F)(F)F)c3)n2C)ccn1 |
| 270 | 96 |  | Clc1ccc(CNc2nc(-c3ccncc3)n[nH]2)cc1 |
| > 10000 |  | > 10 | O=C(CNc1cccc(OCc2ccccc2)c1)N/N=C1\CCCc2cnccc21 |
| 74 | 80 | 8.3 | CC(=O)Nc1cc(NCc2nc(-c3ccncc3)n[nH]2)ccc1Cl |
| 120 | 87 | > 10 | O=C(NCc1ccccc1)c1cccc(NCc2csc(-c3ccncc3)n2)c1 |

| IC50 [1] [nM] | inhibition at 10 µM (CYP3A4) [%] | IC50 [2] [µM] | Structure (SMILES) |
| --- | --- | --- | --- |
| 160 | 25 | > 10 | NS(=O)(=O)c1cccc(NCc2nc(-c3ccncc3)n[nH]2)c1 |
| 190 | 49 |  | O=C(NCc1c(F)cccc1F)c1cccc(NCc2nnc3n2CCOc2cnccc2-3)c1 |
| > 10000 | 100 | > 10 | c1ccc(Oc2cccc(NCc3nc(-c4ccncc4)n[nH]3)c2)cc1 |
| 100 | 94 | > 10 | O=C(NCCCc1ccccc1)c1cccc(NCc2nc(-c3ccncc3)n[nH]2)c1 |
| 1100 | 86 |  | O=S(=O)(Cc1ccccc1)c1cccc(NCc2nc(-c3ccncc3)n[nH]2)c1 |
| 1600 | 60 | > 10 | COc1ccccc1CNC(=O)c1cccc(NCc2nnc(-c3ccncc3)n2C)c1 |
| 31 | 94 | 0.68 | O=C(Nc1ccccc1)c1cccc(NCc2nc(-c3ccncc3)n[nH]2)c1 |
| 1800 | 93 | > 10 | COc1ccccc1NCc1nc(-c2ccncc2)n[nH]1 |
| 50 | 97 | 1.1 | O=C(NCc1ccccc1Cl)c1cccc(NCc2nnc(-c3ccncc3)[nH]2)c1 |
| 340 | 95 |  | O=C(NCc1ccccc1)c1cccc(NCc2ccn(-c3ccncc3)c2)c1 |
| > 10000 | 100 |  | OCCc1cnccc1-c1n[nH]c(CNc2ccc(Cl)cc2)n1 |
| 160 | 93 |  | O=C(NCc1ccccc1)c1cccc(NCc2c[nH]c(-c3ccncc3)n2)c1 |
| 350 | 86 | > 10 | O=C(NCc1ccccc1)c1cccc(NCc2nc(-c3ccncc3)no2)c1 |
| 390 |  | > 10 | COc1cccc(NCC(=O)N/N=C2\CCCc3cnccc32)c1 |
| 58 |  | > 10 | O=C(CNc1cccc(C(=O)NCc2ccccc2)c1)N/N=C1\CCCc2cnccc21 |
| 280 | 95 | > 10 | COc1ccc(NCc2nc(-c3ccncc3)n[nH]2)cc1 |
| 30 | 92 | 2.7 | O=C(NCc1ccccc1)Nc1cccc(NCc2nc(-c3ccncc3)n[nH]2)c1 |
| 27 | 91 | 7.1 | COc1ccc(CNC(=O)c2cccc(NCc3nnc(-c4ccncc4)[nH]3)c2)cc1 |
| 5100 | 74 |  | c1ccc(CNCc2nc(-c3ccncc3)n[nH]2)cc1 |
| 6200 |  | > 10 | O=C(CNc1cccc(Oc2ccccc2)c1)N/N=C1\CCCc2cnccc21 |
| 70 | 77 |  | CC(=O)Nc1cccc(NCc2nc(-c3ccncc3)n[nH]2)c1 |
| 60 | 99 | 7.2 | O=C(NCc1ccccc1)c1cccc(NCc2cc(-c3ccncc3)n[nH]2)c1 |
| > 10000 | 64 | 2.5 | Cn1c(CNc2cccc(C(=O)NCc3c(F)cccc3F)c2)nnc1-c1ccnc(NCCCc2ccccc2)c1 |
| 18 | 84 | 2.5 | O=C(NCc1ccccc1)c1cccc(NCc2cc(-c3ccncc3)on2)c1 |
| 2300 | 63 |  | NC(=O)OCc1cnccc1-c1n[nH]c(CNc2cccc(C(=O)NCc3ccccc3)c2)n1 |

| IC50 [1] [nM] | inhibition at 10 µM (CYP3A4) [%] | IC50 [2] [µM] | Structure (SMILES) |
| --- | --- | --- | --- |
| 7100 | 47 | > 10 | Cc1cc(-c2n[nH]c(CNc3ccc(Cl)cc3)n2)ccn1 |
| 630 | 94 | > 10 | c1ccc(NCc2nc(-c3ccncc3)n[nH]2)cc1 |
| 98 | 83 |  | O=S(=O)(NCc1ccccc1)c1cccc(NCc2nc(-c3ccncc3)n[nH]2)c1 |
| 3200 | 87 |  | O=C(NCc1ccccc1)c1cccc(NCc2nnc(-c3ccncc3)n2Cc2ccccc2)c1 |
| > 10000 |  |  | O=C(CNc1cccc(C(=O)N2CCOCC2)c1)N/N=C1\CCCc2cnccc21 |
| 18 | 90 | 1.7 | O=C(Cc1ccccc1)Nc1cc(NCc2nc(-c3ccncc3)n[nH]2)ccc1Cl |
| 1400 | 97 | > 10 | c1ccc(COc2cccc(NCc3nc(-c4ccncc4)n[nH]3)c2)cc1 |
| 380 | 93 | > 10 | Clc1cccc(NCc2nc(-c3ccncc3)n[nH]2)c1 |
| 85 | 95 | 3.3 | COc1ccccc1CNC(=O)c1cccc(NCc2nnc(-c3ccncc3)[nH]2)c1 |
| > 10000 | 47 | > 10 | Cn1c(CNc2cccc(C(=O)NCc3c(F)cccc3F)c2)nnc1-c1ccnc(NCc2ccccc2)c1 |
| 320 | 43 | > 10 | O=C(NCc1ccccc1)c1cccc(NCc2nnc(-c3ccncc3)o2)c1 |
| 540 | 100 | > 10 | O=C(NCc1ccccc1)c1cccc(NCc2nc(-c3ccncc3CO)n[nH]2)c1 |
| 1900 | 97 |  | Clc1ccc(CSc2nc(-c3ccncc3)n[nH]2)cc1 |
| 170 | 87 |  | O=C(NCc1ccccc1)c1cccc(NCc2[nH]nc(-c3ccncc3)c2-c2ccccc2)c1 |
| 22 | 92 | > 10 | O=C(NCc1ccccc1)c1cccc(NCc2nc(-c3ccncc3)cs2)c1 |
| 1800 |  |  | O=C(CNc1ccccc1)N/N=C1\CCCc2cnccc21 |
| 590 | 100 |  | Clc1ccc(SCc2nc(-c3ccncc3)n[nH]2)cc1 |
| 480 | 92 | > 10 | O=C(Cc1cccc(NCc2nc(-c3ccncc3)n[nH]2)c1)NCc1ccccc1 |
| 360 | 20 | > 10 | NS(=O)(=O)c1ccc(NCc2nc(-c3ccncc3)n[nH]2)cc1 |
| 3700 |  |  | COc1ccc(NCC(=O)N/N=C/c2ccncc2)cc1 |
| > 10000 | 27 |  | O=C(Nc1nc(-c2ccncc2)n[nH]1)c1ccc(Cl)cc1 |
| 47 | 95 | > 10 | O=C(NCCc1ccccc1)c1cccc(NCc2nc(-c3ccncc3)n[nH]2)c1 |
| 2600 |  |  | O=C(CNc1ccccc1Cl)N/N=C/c1ccncc1 |
| 52 | 100 | > 10 | O=C(NCc1ccccc1)c1cccc(NCc2cc(-c3ccncc3)c[nH]2)c1 |
| 130 | 92 | 8.3 | O=C(NCc1ccccc1)c1cccc(NCc2cc(-c3ccncc3)no2)c1 |
